# From US8916183B2, “Pesticidal compositions and processes related thereto” (priority 2012, dated 2014)
# Columns and labels:
# Type in all cases: in vivo
# [1] = tested on: Corn Earworm (CEW) (Helicoverpa zea); assay: Bioassay on corn earworm (CEW), 128-well diet tray assay; settings: Helicoverpa zea; corn earworm, 50 μg/cm^2; read-out: % Mortality CEW 50 μg/cm^2
# Protocol: (§1) Certain molecules disclosed in this document were tested against BAW and CEW using procedures described in the following examples. In the reporting of the results, the “BAW & CEW Rating Table” was used (See Table Section).
# Bioassays on CEW (Helicoverpa zea)
# Bioassays on CEW were conducted using a 128-well diet tray assay. […] Trays were covered with a clear self-adhesive cover and held at 25° C., 14:10 light-dark for five to seven days. Percent mortality was recorded for the larvae in each well; activity in the eight wells was then averaged. The results are indicated in the table entitled “Table 5: Biological Results” (See Table Section).
# [2] = tested on: Beet Armyworm (BAW) (Spodoptera exigua); assay: Bioassay on beet armyworm (BAW), 128-well diet tray assay; settings: Spodoptera exigua; beet armyworm, 50 μg/cm^2; read-out: % Mortality BAW 50 μg/cm^2
# Protocol: as §1
# Bioassays on BAW (Spodoptera exigua)
# Bioassays on BAW were conducted using a 128-well diet tray assay. […] Trays were covered with a clear self-adhesive cover and held at 25° C., 14:10 light-dark for five to seven days. Percent mortality was recorded for the larvae in each well; activity in the eight wells was then averaged. The results are indicated in the table entitled “Table 5: Biological Results” (See Table Section).
# [3] = tested on: Green Peach Aphid (GPA) (Myzus persicae); assay: Bioassay on green peach aphid (GPA), foliar spray on cabbage seedlings; settings: green peach aphid, 200 ppm, read-out: % Mortality GPA 200 ppm
# Protocol: Certain molecules disclosed in this document were tested against GPA using procedures described in the following example. In the reporting of the results, the “GPA Rating Table” was used (See Table Section).
# Cabbage seedlings grown in 3-inch pots, with 2-3 small (3-5 cm) true leaves, were used as test substrate. The seedlings were infested with 20-50 GPA (wingless adult and nymph stages) one day prior to chemical application. Four pots with individual seedlings were used for each treatment. Test compounds (2 mg) were dissolved in 2 mL of acetone/methanol (1:1) solvent, forming stock solutions of 1000 ppm test compound. […] A hand-held aspirator-type sprayer was used for spraying a solution to both sides of […] leaves until runoff. Reference plants (solvent check) were sprayed with the diluent only containing 20% by volume of acetone/methanol (1:1) solvent. Treated plants were held in a holding room for three days at approximately 25° C. and ambient relative humidity (RH) prior to grading. Evaluation was conducted by counting the number of live aphids per plant under a microscope. […] Corrected % Control=100*(X−Y)/X • where • X=No. of live aphids on solvent check plants and • Y=No. of live aphids on treated plants
# The results are indicated in the table entitled “Table 5: Biological Results” (See Table Section).
SMILES,mortality at 50 µg/cm2 [1],mortality at 50 µg/cm2 [2],mortality at 200 ppm [3]
Cc1cccc(C)c1/N=C(/N/N=C/c1ccc(-c2ncn(-c3ccc(OC(F)(F)F)cc3)n2)cc1)SCc1ocnc1-c1ccccc1 [Compound 15C],50 to 100%,50 to 100%,80 to 100%
CCC(C)c1ccccc1N1/C(=N/N=C/c2ccc(-c3ncn(-c4ccc(OC(F)(F)F)cc4)n3)cc2)SCC1(C)O (stereo not drawn) [Compound 243C],50 to 100%,50 to 100%,0 to 80%
"CC(C)c1ccccc1N1C(=NN=Cc2ccc(-c3ncn(-c4ccc(OC(F)(F)F)cc4)n3)cc2)SCC1C (stereo in doubt) [Compound 155C, (Z)-3-(2-isopropylphenyl)-4-methyl-2-((E)-(4-(1-(4-(trifluoromethoxy)phenyl)-1H-1,2,4-triazol-3-yl)benzylidene)hydrazono)thiazolidine]",50 to 100%,50 to 100%,0%
CC(C)c1ccccc1N1/C(=N/N=C/c2ccc(-c3ncn(-c4ccc(C(F)(C(F)(F)F)C(F)(F)F)cc4)n3)cc2)SCC1(C)O (stereo not drawn) [Compound 260C],50 to 100%,50 to 100%,0%
Cc1cccc(C)c1/N=C(/N/N=C/c1ccc(-c2ncn(-c3ccc(OC(F)(F)F)cc3)n2)cc1)SCC(=O)NCC(NC(=O)OC(C)(C)C)C(=O)O (stereo not drawn) [Compound 59C],50 to 100%,50 to 100%,0 to 80%
Cc1ncccc1N1CCCS/C1=N\N=C\c1ccc(-c2ncn(-c3ccc(OC(F)(F)F)cc3)n2)cc1 [Compound 205C],50 to 100%,50 to 100%,0 to 80%
"CC(C)c1ccccc1/N=C1\SCCCN1/N=C/c1ccc(-c2ncn(-c3ccc(C(F)(F)F)cc3)n2)cc1 [Compound 87C, (2Z,NE)-2-((2-isopropylphenyl)imino)-N-(4-(1-(4-(trifluoromethyl)phenyl)-1H-1,2,4-triazol-3-yl)benzylidene)-1,3-thiazinan-3-amine]",,,0 to 80%
CCOc1ccccc1N1CCCS/C1=N\N=C\c1ccc(-c2ncn(-c3ccc(OC(F)(F)F)cc3)n2)cc1 [Compound 208C],50 to 100%,50 to 100%,0%
O=C1CS/C(=N\N=C\c2ccc(-c3ncn(-c4ccc(OC(F)(F)F)cc4)n3)cc2)N1c1c(Cl)cccc1Cl [Compound 70C],50 to 100%,50 to 100%,0%
COc1cccc(N2CCS/C2=N\N=C\c2ccc(-c3ncn(-c4ccc(OC(F)(F)F)cc4)n3)cc2)c1 [Compound 147C],50 to 100%,50 to 100%,0 to 80%
Fc1cccc(F)c1N1CCCS/C1=N\N=C\c1ccc(-c2ncn(-c3ccc(OC(F)(F)F)cc3)n2)cc1 [Compound 189C],50 to 100%,50 to 100%,0 to 80%
Cc1cccc(C)c1N1C(=O)CS/C1=N\N=C\c1ccc(-c2ncn(-c3ccc(OC(F)(F)F)cc3)n2)cc1 [Compound 71C],50 to 100%,50 to 100%,0%
O=C1CS/C(=N\N=C\c2ccc(-c3ncn(-c4ccc(OC(F)(F)F)cc4)n3)cc2)N1c1ccccc1C1CC1 [Compound 112C],50 to 100%,50 to 100%,0 to 80%
Cc1cccc(C)c1/N=C(/N/N=C/c1ccc(-c2ncn(-c3ccc(OC(F)(F)F)cc3)n2)cc1)SCc1ccc(S(C)(=O)=O)cc1 [Compound 17C],50 to 100%,50 to 100%,0 to 80%
CCOCC(=O)OCS/C(=N\c1c(Cl)cc(OC)cc1Cl)N/N=C/c1ccc(-c2ncn(-c3ccc(OC(F)(F)F)cc3)n2)cc1 [Compound 32C],,,0 to 80%
COc1cc(C)c(/N=C(/N/N=C(\C)c2ccc(-c3ncn(-c4ccc(OC(F)(F)F)cc4)n3)cc2)SCOC(=O)C(C)C)c(C)c1 [Compound 26C],,,0%

SMILES,mortality at 50 µg/cm2 [1],mortality at 50 µg/cm2 [2],mortality at 200 ppm [3]
COCCC(=O)S/C(=N\c1c(C)cccc1C)N/N=C/c1ccc(-c2ncn(-c3ccc(OC(F)(F)F)cc3)n2)cc1 [Compound 21C],,,0%
Cc1cccc(C)c1/N=C(/N/N=C/c1ccc(-c2ncn(-c3ccc(OC(F)(F)F)cc3)n2)cc1)SCOC(=O)C(C)OCC(F)(F)F (stereo not drawn) [Compound 39C],,,0%
COc1cc(Cl)c(/N=C(/N/N=C/c2ccc(-c3ncn(-c4ccc(OC(F)(F)F)cc4)n3)cc2)SCOC(=O)C(C)C)c(Cl)c1 [Compound 34C],,,0 to 80%
O=C1CS/C(=N\N=C\c2ccc(-c3ncn(-c4ccc(OC(F)(F)F)cc4)n3)cc2)N1c1ccccc1Cl [Compound 106C],50 to 100%,50 to 100%,
CC1CS/C(=N\N=C\c2ccc(-c3ncn(-c4ccc(OC(F)(F)F)cc4)n3)cc2)N(c2c(Cl)cccc2C(F)(F)F)C1 (stereo not drawn) [Compound 215C],50 to 100%,50 to 100%,
Cc1cc(Cl)cc(C)c1N1C(=O)CS/C1=N\N=C\c1ccc(-c2ncn(-c3ccc(OC(F)(F)F)cc3)n2)cc1 [Compound 105C],50 to 100%,50 to 100%,
O=C1CCS/C(=N\N=C\c2ccc(-c3ncn(-c4ccc(OC(F)(F)F)cc4)n3)cc2)N1c1c(Cl)cccc1C(F)(F)F [Compound 228C],50 to 100%,50 to 100%,
CC1CS/C(=N\N=C\c2ccc(-c3ncn(-c4ccc(OC(F)(F)F)cc4)n3)cc2)N1c1c(Cl)cccc1C(F)(F)F (stereo not drawn) [Compound 160C],50 to 100%,50 to 100%,
CC1CS/C(=N\N=C\c2ccc(-c3ncn(-c4ccc(OC(F)(F)F)cc4)n3)cc2)N(c2ccccc2OC(F)(F)F)C1 (stereo not drawn) [Compound 214C],50 to 100%,50 to 100%,
"Cc1cccc(C)c1/N=C(/N/N=C/c1ccc(-c2ncn(-c3ccc(OC(F)(F)F)cc3)n2)cc1)SCC(=O)NC[C@@H]1CCCN(C(=O)OC(C)(C)C)C1 [Compound 56C, (S)-tert-butyl 3-((2-((Z)-(2,6-dimethylphenylimino)-((E)-2-(4-(1-(4-(trifluoromethoxy)phenyl)-1H-1,2,4-triazol-3-yl)benzylidene)hydrazinyl)-methylthio)acetamido)methyl)piperidine-1-carboxylate]",50 to 100%,50 to 100%,
CC1CS/C(=N\N=C\c2ccc(-c3ncn(-c4ccc(OC(F)(F)F)cc4)n3)cc2)N1c1ccccc1C(C)(C)C (stereo not drawn) [Compound 165C],50 to 100%,50 to 100%,
CC(C)c1cc(F)ccc1N1/C(=N/N=C/c2ccc(-c3ncn(-c4ccc(OC(F)(F)F)cc4)n3)cc2)SCC1(C)O (stereo not drawn) [Compound 258C],50 to 100%,50 to 100%,
CC1S/C(=N\N=C\c2ccc(-c3ncn(-c4ccc(OC(F)(F)F)cc4)n3)cc2)N(c2ccccc2C2CC2)C1=O (stereo not drawn) [Compound 127C],50 to 100%,50 to 100%,
CCC1CS/C(=N\N=C\c2ccc(-c3ncn(-c4ccc(OC(F)(F)F)cc4)n3)cc2)N1c1ccccc1C (stereo not drawn) [Compound 166C],50 to 100%,50 to 100%,
FC(F)(F)Oc1ccc(-n2cnc(-c3ccc(/C=N/N=C4\SCCCN4c4ccccc4OC(F)(F)F)cc3)n2)cc1 [Compound 199C],50 to 100%,50 to 100%,
